These results are taken from patent EP2506856B1, “AMINOSTEROID COMPOUNDS FOR TOPIC LOCAL APPLICATION FOR SKIN-MUCOSA DECOLONISATION OF STAPHYLOCOCCUS AUREUS” (Assistance Publique Hôpitaux de Marseille, priority 2009, dated 2011).

Converted amounts (≈) assume the structure as drawn. Read-outs that look alike come from different tables or passages of the source.

The test system of test [1] is S. aureus (souche de référence ATCC 25923). Briefly: Comparative mouse skin colonisation model, single application of ointment, counts at 30 minutes and 1 hour. Type of test: in vivo, souris. To be noted: for activité de décolonisation par rapport à la squalamine et analogues: comparative ointments, 30 minutes and 1 hour. As for the experimental part: On a également utilisé à fin de comparaisons une pommade à base de mupirocine (Bactroban®), d'acide fusidique (Fucidine®) ou de vancomycine et vaseline à titre de contrôle dans les mêmes conditions expérimentales. Ainsi, 10 µl d'une suspension bactérienne calibrée à 10^6 CFU/ml S. aureus a été appliquée sur la peau préalablement rasée d'une série de 6 souris sur deux quadrants différents (figure 4). Après 2 heures d'incubation et séchage, la pommade a été appliquée sur un des deux quadrants de peau contre une pommade contenant l'excipient seul sur l'autre quadrant. Les quantités de S. aureus, au temps 0 (avant application de la pommade) puis après 30 minutes et 1 heure d'application, ont été déterminées par écouvillonnage cutané et mise en culture sur milieu Chapman pour le dénombrement des colonies comme décrit précédemment.

For the next test, the system named is S. aureus ATCC 25923. Briefly: MIC (CMI) determination on reference strain. The test is classed as cell-based, Staphylococcus aureus. As for the experimental part: Les composés IIIa et IIIb (selon l'invention) avec R=-(CH2)n1-NHZ et n1=2 à 9 présentent une CMI de 2,5 à 20 µg/ml. Tableau 1 : CMI des dérivés III-a sur S. aureus ATCC 25923
(§1) Le composé III-1 présente la meilleure activité avec une CMI de 1µg/ml pour S. Aureus. Tableau 2 : CMI de la squalamine Ia et des dérivés II-1 et III-1 sur différentes souches de S. aureus.

Test [2] concerns Staphylococcus aureus (MRSA). Briefly: MIC (CMI) determination on MRSA strain. The test is classed as cell-based. To be noted: read-out: CMI. The protocol:
as §1

In test [3] the test system is S. aureus (souche de référence ATCC 25923). Nature of the test: Mouse skin colonisation model, single application of 1% ointment, counts at day 1 and day 2. The test is classed as in vivo, souris. The settings on record: figure 4, from environ 10^6 CFU/ml at J0.
Description: Afin de tester l'activité in vivo des composés, on a inventé un modèle expérimental de colonisation cutanéo-muqueuse à S. aureus chez la souris. […] Brièvement, 10 µl d'une suspension bactérienne calibrée à 10^8 CFU/ml S. aureus a été appliquée sur la peau préalablement rasée des souris sur deux quadrants différents (figure 3). La colonisation par S. aureus était ensuite suivie quotidiennement pendant 2 jours par écouvillonnage cutané des souris, reprise de l'écouvillon dans 1 ml d'eau stérile et mise en culture de 100 µl sur gélose Chapman à 37°C pendant 24 heures avant énumération des colonies bactériennes.
De la même manière, 10 µl d'une suspension bactérienne calibrée à 10^8 CFU/ml S. aureus a été appliquée sur la peau préalablement rasée d'une série de 4 souris sur deux quadrants différents (figure 3). […] Les quantités de S. aureus, au temps 0 (avant application de la pommade) puis aux jours 1 et 2 (J1 et J2) après application, ont été déterminées par écouvillonnage cutané et mise en culture sur milieu Chapman pour le dénombrement des colonies comme décrit précédemment.
Test [4] deals with différentes souches de S. aureus (y compris des souches résistantes à la méticilline (MRSA)). To be noted: different S. aureus strains including MRSA; cited from earlier work.
For the next test, the system named is Staphylococcus. The settings on record: au bout de 24 heures; cited from earlier work.
In a further test the test system is Staphylococcus aureus. The settings on record: 1% ointment, 2 fois/jour for 48 heures before surgery, fosses nasales; cited from earlier work.
[5] abbreviates: Staphylococcus aureus, ATCC25923, read-out: CMI.
The mark [6] stands for this setting: Staphylococcus aureus, ATCC25923, dérivés III-a, R=-(CH2)n1-NH2, S. aureus ATCC 25923, read-out: CMI.
Where [7] appears, read: from environ 2.10^4 CFU/ml at t=0, single application of 1% ointment.

With `CN[C@H](CC(C)C)C(=O)N[C@H]1C(=O)N[C@@H](CC(N)=O)C(=O)N[C@H]2C(=O)N[C@H]3C(=O)N[C@H](C(=O)N[C@H](C(=O)O)c4cc(O)cc(O)c4-c4cc3ccc4O)[C@H](O)c3ccc(c(Cl)c3)Oc3cc2cc(c3O[C@@H]2O[C@H](CO)[C@@H](O)[C@H](O)[C@H]2O[C@H]2C[C@](C)(N)[C@H](O)[C@H](C)O2)Oc2ccc(cc2Cl)[C@H]1O` [vancomycine], the “activité de décolonisation par rapport à la squalamine et analogues” value in test [1] is “activité nettement moindre et moins rapide”.

Turning to `C[C@H](NCCCCCCCN)[C@H]1CC[C@H]2[C@@H]3CCC4=C[C@@H](NCCCCCCCN)CC[C@]4(C)[C@H]3CC[C@]12C` [III-a n1=7], in the test with S. aureus ATCC 25923 (setting [5]), the MIC is 2.5 µg/mL (≈ 4.6 µM).

As for `C[C@H](NCCCCCCN)[C@H]1CC[C@H]2[C@@H]3CCC4=C[C@@H](NCCCCCCN)CC[C@]4(C)[C@H]3CC[C@]12C` [III-a n1=6], in the test on S. aureus ATCC 25923 (setting [6]), the MIC worked out at 2.5 µg/mL (≈ 4.86 µM).

For the compound `CC(C)[C@@H](CC[C@@H](C)[C@H]1CC[C@H]2[C@@H]3[C@H](O)C[C@H]4C[C@@H](NCCCNCCCCN)CC[C@]4(C)[C@H]3CC[C@]12C)OS(=O)(=O)O` [Ia, squalamine], the MIC in the test with S. aureus ATCC 25923 (ATCC25923, Staphylococcus aureus ATCC 25923, read-out: CMI) came out at 2 µg/mL (≈ 3.18 µM). Also, in test [2] (Staphylococcus aureus (MRSA)), the MIC turned out to be 2 µg/mL (≈ 3.18 µM). In addition, in test [3], the “concentration en bactéries Staphylococcus aureus à J1” value is on record as 10^2 CFU/ml and the “concentration en bactéries Staphylococcus aureus à J2” value is ~10^1 CFU/ml. In test [1] (1% ointment, single application, figure 6), the “diminution du nombre de CFU/ml après 1 heure” value is recorded as 4 logarithmes. For the same compound, in test [1] (setting [7]), the “concentration à t=30 minutes” value is less than 1 CFU/ml. Also, the CMI in test [4] was 2 µg/mL.

Consider `C[C@H](NCCCCCCCCN)[C@H]1CC[C@H]2[C@@H]3CCC4=C[C@@H](NCCCCCCCCN)CC[C@]4(C)[C@H]3CC[C@]12C` [III-a n1=8], for which the MIC in the test on S. aureus ATCC 25923 (setting [6]) was 2.5 µg/mL (≈ 4.38 µM).

In the case of `C[C@H](NCCN)[C@H]1CC[C@H]2[C@@H]3CCC4=C[C@@H](NCCN)CC[C@]4(C)[C@H]3CC[C@]12C` [III-a n1=2], the MIC in the test on S. aureus ATCC 25923 (setting [6]) stood at 20 µg/mL (≈ 49.7 µM).

Consider `CC(=O)O[C@H]1C[C@@]2(C)[C@@H](C[C@@H](O)[C@H]3[C@@]4(C)CC[C@@H](O)[C@@H](C)[C@@H]4CC[C@@]32C)/C1=C(\CCC=C(C)C)C(=O)O` [acide fusidique], for which the “activité de décolonisation par rapport à la squalamine et analogues” value in test [1] was “activité nettement moindre et moins rapide”.

Turning to `C[C@H](NCCCN)[C@H]1CC[C@H]2[C@@H]3CCC4=C[C@@H](NCCCN)CC[C@]4(C)[C@H]3CC[C@]12C` [III-a n1=3], the MIC in the test on S. aureus ATCC 25923 (setting [6]) was 5 µg/mL (≈ 11.6 µM).

Turning to `C[C@H](NCCCCCCCCCN)[C@H]1CC[C@H]2[C@@H]3CCC4=C[C@@H](NCCCCCCCCCN)CC[C@]4(C)[C@H]3CC[C@]12C` [III-a n1=9], the MIC with S. aureus ATCC 25923 (setting [6]) turned out to be 5 µg/mL (≈ 8.35 µM).

With `CC(C)CCC[C@@H](C)[C@H]1CC[C@H]2[C@@H]3[C@@H](NCCCCN)C=C4C[C@@H](O)CC[C@]4(C)[C@H]3CC[C@]12C` [II-1, 7β-(1,4-diaminobutane)-cholest-5-ene-3β-ol], the MIC with S. aureus ATCC 25923 (setting [5]) worked out at 2 µg/mL (≈ 4.23 µM); in test [2] (Staphylococcus aureus, MRSA), 2 µg/mL (≈ 4.23 µM). Further, in test [1] (expected from the 60 minute result), the “décolonisation escomptée en moins de 24 heures” value is ≥ 99,90%. Moreover, in test [1] (setting [7]), the “concentration au bout de 60 minutes” value was determined as 55 CFU/ml. The CMI in test [4] was 2 µg/mL.

`C[C@H](NCCCCN)[C@H]1CC[C@H]2[C@@H]3CCC4=C[C@@H](NCCCCN)CC[C@]4(C)[C@H]3CC[C@]12C` [III-a n1=4]: the MIC in the test with S. aureus ATCC 25923 (setting [5]) is 5 µg/mL (≈ 10.9 µM).

As to `C/C(=C\C(=O)OCCCCCCCCC(=O)O)C[C@@H]1OC[C@H](C[C@@H]2O[C@H]2[C@@H](C)[C@H](C)O)[C@@H](O)[C@H]1O` [mupirocine], the “activité de décolonisation par rapport à la squalamine et analogues” value in test [1] is “activité nettement moindre et moins rapide”. Besides, the “division de la concentration de bactéries Staphylococcus” value in the test on Staphylococcus is given as 5.10^2 CFU/ml. Moreover, the “décolonisation des bactéries Staphylococcus aureus” value in the test with Staphylococcus aureus is on record as 99,9%.

As to `C[C@H](NCCCCCN)[C@H]1CC[C@H]2[C@@H]3CCC4=C[C@@H](NCCCCCN)CC[C@]4(C)[C@H]3CC[C@]12C` [III-a n1=5], in the test on S. aureus ATCC 25923 (setting [6]), the MIC amounted to 5 µg/mL (≈ 10.3 µM).
